{
  "source": "patent US20200397817A1",
  "about": "“METHOD FOR PREDICTING AND MODULATING SUSCEPTIBILITY OF CANCER CELL TO PROGRAMMED CELL DEATH” (SHIEH, Darbin, priority 2017, published 2020)",
  "key": {"[1]": {"tested_on": "ZVI sensitive OEC-M1 cells", "assay": "Cell survival assay, ZVI@CMC NPs plus ROS scavenger, OEC-M1", "assay_type": "cell-based", "details": "48 h, FIG. 4; for cell viability recovered as compared with ZVI@CMC NPs alone: ROS scavenger together with 5 μg/mL ZVI@CMC NPs", "protocol": "(§1) Cytotoxicity of the ZVI NPs was evaluated by the MTT assay using 3-(4,5-dimethylthiazol-2-yl)-2,5-diphenyltetrazolium bromide. Log-phase OSCC cells were seeded at a density of 5000 cells per well in a 96-well culture plate and incubated for 16 h. The attached cells were then incubated with a series of concentrations of ZVI NPs for 48 h. Subsequently, culture medium of the cells were replaced by fresh complete medium contained 0.5 mg/mL of MTT and the cells were incubated at 37° C. for 1 h. After removing the medium, the resulting MTT crystals were dissolved in DMSO and measured for their optical absorbance at 550 nm to determine viability of the cells.\n(§2) Additionally, various cell survival assays were conducted by incubating the cells with 5 μg/mL of ZVI@CMC NPs in combination with an iron chelator (eg. 1 μM of 1, 10-phenanthroline or 1 μM of desferoxamine (DFO)), a ROS scavenger (eg. 100 μM of vitamin C, 100 μM of vitamin E, 100 μM of TEMPOL, 5 μM of mito-lEMPOL, 100 μM Trolox, 100 μM Tiron, or 500 μM NAC), a ferroptosis inhibitor (eg. 5 μM of liproxstatin and 50 μM of ferrostatin) or a ferroptosis inducer (eg. 0.05 μM of RSL-3 or 1 μM of erastin) for 48 h."}, "[2]": {"tested_on": "ZVI refractory HSC-3, SAS and OEC-M1 R3 cells", "assay": "Cell survival assay, ZVI@CMC NPs plus ferroptosis inducer, refractory cells", "assay_type": "cell-based", "details": "ferroptosis inducer in combination with 5 μg/mL ZVI@CMC NPs, 48 h; FIG. 10A", "protocol": "as §1, §2"}, "[3]": {"tested_on": "ZVI refractory SAS cells", "assay": "SAS tumor xenograft in SCID mice, tumor growth", "assay_type": "in vivo", "details": "20 mg/kg RSL-3 together with 25 mg/kg ZVI@CMC NPs, tail vein, every other day x4; FIGS. 10B-10D", "from_the_text": "Six to eight week old male mice with severe combined immunodeficiency (SCID) were used as the hosts for OSCC tumor xenografts. 3×10^6 SAS cells were subcutaneously injected into the dorsal flank of the mice to establish tumor lesions. A visible tumor mass was normally observed 1.5 to 2 weeks after the injection. When the tumor size reached approximately 50 mm^3, the mice were randomly assigned to four groups, including a PBS control group, a RSL-3 treatment group, a ZVI@CMC NP treatment group and a ZVI@CMC NP+RSL-3 treatment group (n=4 per group). PBS solution, 20 mg/kg of RSL-3 and 25 mg/kg of ZVI@CMC NPs were individually administered to the mice through tail vein injection once every other day for four times before the final tumor size in every group was measured. The Tumor volumes were measured by a digital caliper and calculated using the formula: […]."}, "[4]": {"tested_on": "ZVI refractory cells", "assay": "Depolarized cells, ZVI@CMC NPs plus ferroptosis inducer, refractory cells", "assay_type": "cell-based", "details": "ferroptosis inducer with ZVI@CMC NPs; FIG. 10A"}, "[5]": {"tested_on": "ZVI sensitive cells OEC-M1 and SCC-9", "assay": "Cell survival assay, ZVI@CMC NPs plus co-agent, OEC-M1 and SCC-9", "details": "added to 5 μg/mL ZVI@CMC NPs, 48 h; FIG. 7B", "protocol": "as §1, §2"}, "[6]": {"tested_on": "ZVI sensitive SCC-9 and OEC-M1 cell lines", "assay": "Mitochondrial membrane potential (MitoTracker flow cytometry), sensitive lines", "assay_type": "cell-based", "details": "added to ZVI@CMC NPs; FIG. 7C", "protocol": "Depolarization of the ZVI NP treated cells was assessed by double staining with 50 nM of MitoTracker Green, a commercial dye for indicating total mitochondrial mass, and 100 nM of MitoTracker Deep Red, another commercial dye for indicating mitochondria membrane potential (ΔΨ), at 37° C. for 30 min, followed by analysis of red fluorescent signals under an excitation wavelength of 644 nm and an emission wavelength of 665 nm and green fluorescent signals under an excitation wavelength of 490 nm and an emission wavelength of 516 nm by a BD Canto II Flow Cytometer."}},
  "data": [
    {"compound": "CC(=O)N[C@@H](CS)C(=O)O", "note": "[NAC, N-acetylcysteine]", "values": [
      {"measurement": "effect of co-agent on cytotoxicity of ZVI@CMC NPs", "setting": "[1]; cotreatment with 5 μg/mL ZVI@CMC NPs", "value": "reduce cytotoxicity"}
    ]},
    {"compound": "COC(=O)c1ccc([C@H]2c3[nH]c4ccccc4c3C[C@H](C(=O)OC)N2C(=O)CCl)cc1", "note": "[RSL-3, methyl (1S,3R)-2-(2-chloroacetyl)-1-(4-methoxycarbonylphenyl)-1,3,4,9-tetrahydropyrido[3,4-b]indole-3-carboxylate]", "values": [
      {"measurement": "cell viability as compared with ZVI@CMC NPs alone", "setting": "[2]", "value": "significantly reduced"},
      {"measurement": "tumor growth as compared to ZVI@CMC NPs or RSL-3 alone", "setting": "[3]", "value": "significantly delayed"},
      {"measurement": "percentage of depolarized cells", "setting": "[4]", "value": "dramatically increased"}
    ]},
    {"compound": "CC1(C)CC(O)CC(C)(C)N1[O]", "note": "[TEMPOL, 4-hydroxy-2,2,6,6-tetramethylpiperidin-1-oxyl]", "values": [
      {"measurement": "cell viability recovered as compared with ZVI@CMC NPs alone", "setting": "[1]", "value": "about 50%"}
    ]},
    {"compound": "O=S(=O)([O-])c1cc(O)c(O)c(S(=O)(=O)[O-])c1.[Na+].[Na+]", "note": "[Tiron, disodium 4,5-dihydroxy-1,3-benzenedisulfonate]", "values": [
      {"measurement": "cell viability recovered as compared with ZVI@CMC NPs alone", "setting": "[1]", "value": "about 50%"}
    ]},
    {"compound": "Cc1c(C)c2c(c(C)c1O)CCC(C)(C(=O)O)O2", "note": "(stereo not shown) [Trolox, 6-Hydroxy-2,5,7,8-tetramethylchroman-2-carboxylic acid]", "values": [
      {"measurement": "cell viability recovered as compared with ZVI@CMC NPs alone", "setting": "[1]", "value": "about 50%"}
    ]},
    {"compound": "CCOc1ccccc1-n1c(C(C)N2CCN(C(=O)COc3ccc(Cl)cc3)CC2)nc2ccccc2c1=O", "note": "(stereo not shown) [erastin, 2-[1-[4-[2-(4-chlorophenoxy)acetyl]piperazin-1-yl]ethyl]-3-(2-ethoxyphenyl)quinazolin-4-one]", "values": [
      {"measurement": "cell viability as compared with ZVI@CMC NPs alone", "setting": "[2]", "value": "significantly reduced"},
      {"measurement": "percentage of depolarized cells", "setting": "[4]", "value": "dramatically increased"}
    ]},
    {"compound": "CCOC(=O)c1ccc(NC2CCCCC2)c(N)c1", "note": "[ferrostatin]", "values": [
      {"measurement": "recovery of cell viability of ZVI@CMC NP treated cells", "setting": "[5]", "value": "~50", "unit": "%"},
      {"measurement": "percentage of depolarized cells caused by ZVI@CMC NP induced mitochondrial hyperoxidation", "setting": "[6]", "value": "reduce the percentage of depolarized cells"}
    ]},
    {"compound": "Clc1cccc(CN=C2Nc3ccccc3NC23CCNCC3)c1", "note": "[liproxstatin]", "values": [
      {"measurement": "recovery of cell viability of ZVI@CMC NP treated cells", "setting": "[5]", "value": "~50", "unit": "%"},
      {"measurement": "percentage of depolarized cells caused by ZVI@CMC NP induced mitochondrial hyperoxidation", "setting": "[6]", "value": "reduce the percentage of depolarized cells"}
    ]}
  ]
}
